Data reported in patent US4036979A, “Compositions containing 4,5,6,7-tetrahydrobenz[b]thien-4-yl-ureas or derivatives and methods of enhancing growth rate” (American Cyanamid Company, priority 1976, dated 1977).

assay: Mouse Growth Regulant Tests (12-day weight gain over controls, compound in diet); assay type: in vivo, CFI female mice; details: Mus musculus, feed or water, 288 h, Table IX; 400 ppm in diet
Description: CFI female mice from Carworth Farms are received when they are six weeks old. They are housed ten to a cage in air-conditioned rooms (72° F. to 76° F.) with automatically controlled lights, 14 hours on and 10 hours off. The basal diet used in these studies is Purina Laboratory Chow (see description below), which is supplied ad libitum. Water is also allowed ad libitum.
Thirteen days after arrival, the mice are weighed in groups of ten and assigned at random to the different treatments. Twelve days later the mice are weighed again and the experiment terminated. At least three cages (30 mice) of untreated controls are included in each test. Test data are provided in Tables VI, VII, VIII, and IX below wherein data are reported as percent weight gain over controls. Unless otherwise indicated in these tables, all compounds tested were dl-racemic mixtures. The following is a description of the diet to which the growth promoting compounds were added.

First: COCNC(=O)NC1CCCCc2sccc21 (stereo not drawn) [Table IX: O,H,H,CH2OCH3, 1-(methoxymethyl)-3-(5,6,7,8-tetrahydro-4H-cyclohepta[b]thien-4-yl)urea]
Second: CNC(=O)NC1CCCCc2sccc21 (stereo not drawn) [Table IX: O,H,H,CH3, 1-methyl-3-(5,6,7,8-tetrahydro-4H-cyclohepta[b]thien-4-yl)urea]
The change in vivo at 400 ppm of the first is lower: 10% for the first, 41% for the second.

Compared with `CCNC(=S)NC1CCCCc2sccc21` (stereo not drawn) [Table IX: S,H,H,C2H5, 1-ethyl-3-(5,6,7,8-tetrahydro-4H-cyclohepta[b]thien-4-yl)-2-thiourea], `NC(=O)NC1CCCCc2sccc21` (stereo not drawn) [Table IX: O,H,H,H, 5,6,7,8-tetrahydro-4H-cyclohepta[b]thien-4-ylurea] is higher in change in vivo at 400 ppm: 40% for the first, 54% for the second.

same assay, conditions: Mus musculus, feed or water, 288 h, Table VI; 200 ppm in diet

With `O=C(NC(=O)C(Cl)(Cl)Cl)NC1CCCc2sccc21` (stereo not drawn) the change in vivo at 200 ppm was 37.4%.

same assay, conditions: Mus musculus, feed or water, 288 h, Table VI; 400 ppm in diet

Going from `COc1cccc(NC(=O)NC2CCCc3sccc32)c1` (stereo not drawn) to `CCOc1ccc(NC(=O)NC2CCCc3sccc32)cc1` (stereo not drawn), the change in vivo at 400 ppm falls from 25% to 8%.

First: O=C(NC1CCCc2sccc21)N1CCNCC1 (stereo not drawn)
Second: O=C(NC1CCCc2sccc21)N1CCCC1 (stereo not drawn) [Table VI: O,H,H,H,CH2CH2CH2CH2]
The change in vivo at 400 ppm of the first is lower: 3% for the first, 18% for the second.

Going from `CCC(C)NC(=O)NC1CCCc2sc(C)c(C)c21` (stereo not drawn) [Table VI: O,CH3,CH3,H,2-butyl,H] to `Cc1sc2c(c1C)C(NC(N)=O)CCC2` (stereo not drawn) [Table VI: O,CH3,CH3,H,H,H], the change in vivo at 400 ppm falls from 3% to 0%.

Compared with `O=C(NC1CCCc2sccc21)N1CCC2(CC1)C(=O)NCN2c1ccccc1` (stereo not drawn), `O=C(NC1CCCc2sccc21)N1CCc2ccccc2C1` (stereo not drawn) is lower in change in vivo at 400 ppm: 14% for the first, 7% for the second.

`O=C(NC1CCCc2sccc21)N1CCCc2ccccc21` (stereo not drawn) and `O=C(NC1CCCc2ccccc21)NC1CCCc2sccc21` (stereo not drawn) are the same in change in vivo at 400 ppm: 4% for the first, 4% for the second.

Going from `O=C(NCc1cccnc1)NC1CCCc2sccc21` (stereo not drawn) to `COc1ccc(CNC(=O)NC2CCCc3sccc32)cc1` (stereo not drawn), the change in vivo at 400 ppm falls from 48% to 16%.

Going from `S=C(NCCc1ccccn1)NC1CCCc2sccc21` (stereo not drawn) to `CCCCNC(=S)NC1CCCc2sccc21` (stereo not drawn) [Table VI: S,H,H,H,H,n-butyl], the change in vivo at 400 ppm rises from 15% to 75%.

Compared with `CCCCCCONC(=O)NC1CCCc2sccc21` (stereo not drawn) [Table VI: O,H,H,H,H,On-C6H13], `CCCCCCNC(=O)NC1CCCc2sccc21` (stereo not drawn) [Table VI: O,H,H,H,H,n-hexyl, 1-(n-hexyl)-3-(4,5,6,7-tetrahydrobenzo[b]thien-4-yl)urea] is lower in change in vivo at 400 ppm: 29% for the first, 14.5% for the second.

Going from `COc1ccc(N2CCN(C(=O)NC3CCCc4sccc43)CC2)cc1` (stereo not drawn) to `COc1ccc(NC(=S)NC2CCCc3sccc32)cc1` (stereo not drawn), the change in vivo at 400 ppm falls from 24% to -1.4%.

Going from `CN(C)C(=O)NC1CCCc2sccc21` (stereo not drawn) [Table VI: O,H,H,H,CH3,CH3, 1,1-dimethyl-3-(4,5,6,7-tetrahydrobenzo[b]thien-4-yl)urea] to `CN(O)C(=O)NC1CCCc2sccc21` (stereo not drawn) [Table VI: O,H,H,H,CH3,OH, 1-hydroxy-1-methyl-3-(4,5,6,7-tetrahydrobenzo[b]thien-4-yl)urea], the change in vivo at 400 ppm falls from 55.1% to 49.6%.

First: O=C(NC1CCCc2sccc21)NC1CCCc2sccc21 (stereo not drawn)
Second: O=C(NCNC(=O)NC1CCCc2sccc21)NC1CCCc2sccc21 (stereo not drawn)
The change in vivo at 400 ppm of the first is higher: 43% for the first, 29% for the second.

Going from `O=C(NC1CCCc2sccc21)N1CCOCC1` (stereo not drawn) [Table VI: O,H,H,H,CH2CH2OCH2CH2, N-(4,5,6,7-tetrahydrobenzo[b]thien-4-yl)-4-morpholinecarboxamide] to `O=C(NO)NC1CCCc2sccc21` (stereo not drawn) [Table VI: O,H,H,H,H,OH, 1-hydroxy-3-(4,5,6,7-tetrahydrobenzo[b]thien-4-yl)urea], the change in vivo at 400 ppm rises from 9.9% to 103%.

Compared with `CN(C)NC(=O)NC1CCCc2sccc21` (stereo not drawn) [Table VI: O,H,H,H,H,N(CH3)2], `CONC(=O)NC1CCCc2sccc21` (stereo not drawn) [Table VI: O,H,H,H,H,OCH3, 1-methoxy-3-(4,5,6,7-tetrahydrobenzo[b]thien-4-yl)urea] is higher in change in vivo at 400 ppm: 3% for the first, 68.6% for the second.

Compared with `O=C(NCC(F)(F)F)NC1CCCc2sccc21` (stereo not drawn) [Table VI: O,H,H,H,H,CH2CF3], `COCNC(=O)NC1CCCc2sccc21` (stereo not drawn) [Table VI: O,H,H,H,H,CH2OCH3, 1-(methoxymethyl)-3-(4,5,6,7-tetrahydrobenzo[b]thien-4-yl)urea] is higher in change in vivo at 400 ppm: 19% for the first, 102% for the second.

First: O=C(O)CONC(=O)NC1CCCc2sccc21 (stereo not drawn) [Table VI: O,H,H,H,H,OCH2CO2H]
Second: O=C(NCCO)NC1CCCc2sccc21 (stereo not drawn) [Table VI: O,H,H,H,H,CH2CH2OH]
The change in vivo at 400 ppm of the first is higher: 63.3% for the first, 3% for the second.

Compared with `Cc1csc2c1C(NC(N)=O)CCC2` (stereo not drawn) [Table VI: O,H,CH3,H,H,H, 3-methyl-4,5,6,7-tetrahydrobenzo[b]thien-4-ylurea], `NC(=O)NC1CCCc2sc(Br)cc21` (stereo not drawn) [Table VI: O,Br,H,H,H,H, 2-bromo-4,5,6,7-tetrahydrobenzo[b]-thien-4-ylurea] is higher in change in vivo at 400 ppm: 26% for the first, 76.3% for the second.

Going from `C#CCN(Cc1ccccc1)C(=O)NC1CCCc2sccc21` (stereo not drawn) [Table VI: O,H,H,H,CH2C6H5,CH2CCH] to `O=C(NC1CCCc2sccc21)N(O)Cc1ccccc1` (stereo not drawn) [Table VI: O,H,H,H,CH2C6H5,OH], the change in vivo at 400 ppm falls from 30% to 12%.

Going from `CC(C)NC(=O)NC1CCCc2sccc21` (stereo not drawn) [Table VI: O,H,H,H,H,CH(CH3)2, 1-isopropyl-3-(4,5,6,7-tetrahydrobenzo[b]thien-4-yl)urea] to `CC(C)N(O)C(=O)NC1CCCc2sccc21` (stereo not drawn) [Table VI: O,H,H,H,CH(CH3)2,OH], the change in vivo at 400 ppm falls from 88% to 32%.

First: CCOC(=O)NC(=S)NC1CCCc2sccc21 (stereo not drawn) [Table VI: S,H,H,H,H,CO2C2H5]
Second: CCNC(=S)NC1CCCc2sccc21 (stereo not drawn) [Table VI: S,H,H,H,H,C2H5, 1-ethyl-3-(4,5,6,7-tetrahydrobenzo[b]thien-4-yl)thiourea]
The change in vivo at 400 ppm of the first is lower: 22.3% for the first, 54.6% for the second.

Compared with `O=C(NC1CCCc2sccc21)N(O)C1CCCCC1` (stereo not drawn), `NC(=S)NC1CCCc2sccc21` (stereo not drawn) [Table VI: S,H,H,H,H,H, 4,5,6,7-tetrahydrobenzo[b]thien-4-yl thiourea] is lower in change in vivo at 400 ppm: 19% for the first, 11% for the second.

First: CNC(=O)NC1CCC(C)(C)c2sccc21 (stereo not drawn) [1-methyl-3-(7,7-dimethyl-4,5,6,7-tetrahydrobenzo-[b]thien-4-yl)urea]
Second: CON(C)C(=S)NC1CCCc2sccc21 (stereo not drawn) [Table VI: S,H,H,H,CH3,OCH3]
The change in vivo at 400 ppm of the first is lower: 15% for the first, 66% for the second.

Going from `O=C(NC1CCc2ccccc21)NC1CCCc2sccc21` (stereo not drawn) to `O=C(NOc1ccccc1)NC1CCCc2sccc21` (stereo not drawn), the change in vivo at 400 ppm rises from 8% to 90.6%.

For `C=CCN(CC=C)C(=O)NC1CCCc2sccc21` (stereo not drawn) [Table VI: O,H,H,H,CH2CHCH2,CH2CHCH2], the change in vivo at 400 ppm was 4%.

same assay, conditions: Mus musculus, feed or water, 288 h, Table VII; 25 ppm in diet

In the case of `NC(=O)NC1CCC(=O)c2sccc21` (single isomer, unassigned; (-)) [Table VII: O,H,H (levorotatory enantiomorph), (-)-4,5,6,7-tetrahydro-7-oxobenzo[b]thien-4-ylurea], the change in vivo at 25 ppm is reported as 119%.

same assay, conditions: Mus musculus, feed or water, 288 h, Table VII; 200 ppm in diet

Compared with `CON(C)C(=O)NC1CCC(=O)c2sccc21` (stereo not drawn) [Table VII: O,CH3,OCH3, 1-methoxy-1-methyl-3-(4,5,6,7-tetrahydro-7-oxobenzo[b]thien-4-yl)urea], `CN(O)C(=O)NC1CCC(=O)c2sccc21` (stereo not drawn) [Table VII: O,CH3,OH] is lower in change in vivo at 200 ppm: 62.6% for the first, 31.3% for the second.

Compared with `NC(=O)NC1CCC(=O)c2sccc21` (single isomer, unassigned; (+)) [Table VII: O,H,H (dextrorotatory enantiomorph), (+)-4,5,6,7-tetrahydro-7-oxobenzo[b]thien-4-ylurea], `CONC(=O)NC1CCC(=O)c2sccc21` (stereo not drawn) [Table VII: O,H,OCH3] is higher in change in vivo at 200 ppm: 9.4% for the first, 71% for the second.

same assay, conditions: Mus musculus, feed or water, 288 h, Table VII; 400 ppm in diet

Compared with `CCCCCCCCCCCCCCNC(=O)NC1CCC(=O)c2sccc21` (stereo not drawn) [Table VII: O,H,n-C14H29], `CCNC(=O)NC1CCC(=O)c2sccc21` (stereo not drawn) [Table VII: O,H,C2H5, 1-ethyl-3-(4,5,6,7-tetrahydro-7-oxobenzo[b]thien-4-yl)urea] is higher in change in vivo at 400 ppm: 9.7% for the first, 79.3% for the second.

`O=C(NC(=O)C(Cl)(Cl)Cl)NC1CCC(=O)c2sccc21` (stereo not drawn) gave a change in vivo at 400 ppm of 62.2%.

same assay, conditions: Mus musculus, feed or water, 288 h, Table VIII; 200 ppm in diet

In the case of `CCNC(=O)NC1CCC(O)c2sccc21` (stereo not drawn) [Table VIII: O,H,C2H5, 1-ethyl-3-(7-hydroxy-4,5,6,7-tetrahydrobenzo[b]thien-4-yl)urea], the change in vivo at 200 ppm is reported as 73.4%.

same assay, conditions: Mus musculus, feed or water, 288 h, Table VIII; 400 ppm in diet

First: COCNC(=O)NC1CCC(O)c2sccc21 (stereo not drawn) [Table VIII: O,H,CH2OCH3, 1-(methoxymethyl)-3-(4,5,6,7-tetrahydro-7-hydroxybenzo[b]thien-4-yl)urea]
Second: C=CCNC(=O)NC1CCC(O)c2sccc21 (stereo not drawn) [Table VIII: O,H,CH2CHCH2, 1-allyl-3-(7-hydroxy-4,5,6,7-tetrahydrobenzo[b]thien-4-yl)-urea]
The change in vivo at 400 ppm of the first is higher: 124% for the first, 29.1% for the second.

same assay, conditions: Table VIII; 25 ppm in diet

With `NC(=O)NC1CCC(O)c2sccc21` (single isomer, unassigned; (-)) [Table VIII: O,H,H (levorotatory diastereomer, 86% isomer A)] the “& Weight Gain Over Controls” value was 54.4%.
With `NC(=O)NC1CCC(O)c2sccc21` (single isomer, unassigned; (-)) [Table VIII: O,H,H (levorotatory diastereomer, 91.5% isomer B)] the “& Weight Gain Over Controls” value was 74.5%.
